# ± gives the expanded uncertainty stated by the source.
# Experiment: cn = amount concentration of the nth substance listed, in mol/dm3
# Details: 101 kPa, Liquid; for viscosity: Capillary tube (Ostwald / Ubbelohde) method; for mass density: Vibrating tube method
compound,measurement,setting,value
O=C(O)CC(O)(CC(=O)O)C(=O)O [citric acid] + O,viscosity,"298.15 K, c1 = 0.03",0.8766 ± 0.0064 mPa·s
same,viscosity,"298.15 K, c1 = 0.05",0.8921 ± 0.0065 mPa·s
same,viscosity,"298.15 K, c1 = 0.07",0.9048 ± 0.0065 mPa·s
same,viscosity,"298.15 K, c1 = 0.1",0.9254 ± 0.0066 mPa·s
same,mass density,"298.15 K, c1 = 0.03",999.5 ± 0.1 kg/m3
same,mass density,"298.15 K, c1 = 0.05",1000.9 ± 0.1 kg/m3
same,mass density,"298.15 K, c1 = 0.07",1002.6 ± 0.1 kg/m3
same,mass density,"298.15 K, c1 = 0.1",1004.8 ± 0.1 kg/m3
same,viscosity,"308.15 K, c1 = 0.03",0.7136 ± 0.0058 mPa·s
same,viscosity,"308.15 K, c1 = 0.05",0.7253 ± 0.0059 mPa·s
same,viscosity,"308.15 K, c1 = 0.07",0.7595 ± 0.006 mPa·s
same,viscosity,"308.15 K, c1 = 0.1",0.7855 ± 0.0061 mPa·s
same,mass density,"308.15 K, c1 = 0.03",996.3 ± 0.1 kg/m3
same,mass density,"308.15 K, c1 = 0.05",997.7 ± 0.1 kg/m3
same,mass density,"308.15 K, c1 = 0.07",999.3 ± 0.1 kg/m3
same,mass density,"308.15 K, c1 = 0.1",1001.8 ± 0.1 kg/m3
same,viscosity,"318.15 K, c1 = 0.03",0.6253 ± 0.0055 mPa·s
same,viscosity,"318.15 K, c1 = 0.05",0.6261 ± 0.0055 mPa·s
same,viscosity,"318.15 K, c1 = 0.07",0.6527 ± 0.0056 mPa·s
same,viscosity,"318.15 K, c1 = 0.1",0.6766 ± 0.0057 mPa·s
same,mass density,"318.15 K, c1 = 0.03",992.5 ± 0.1 kg/m3
same,mass density,"318.15 K, c1 = 0.05",993.8 ± 0.1 kg/m3
same,mass density,"318.15 K, c1 = 0.07",995.4 ± 0.1 kg/m3
same,mass density,"318.15 K, c1 = 0.1",997.9 ± 0.1 kg/m3
